The results in this text go back to ChEMBL document CHEMBL1201862, “PubChem BioAssay data set” (2004).

SMILES strings stand for the structures.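 Briefly, cells in 96-well plates were exposed to five compound concentrations for 48 h, and endpoints were estimated by linear interpolation. GI50 = concentration required for 50% inhibition of growth.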 Calls of active or inactive are those of the source. Cut-off read from the data, not from the text of the source: active = GI50 up to about 1.1 µM and inactive = higher.

Test systems include 786-0; CAKI-1; CCRF-CEM; HL-60; HOP-92; KM-20L2; KM12; LOX IMVI; LXFL 529; M14; MOLT-4; NCI-H23; OVCAR-3; SF-268; SF-539; SK-MEL-2; U-251; UACC-257; UO-31.
Assay in all cases: NCI-60 cell line screen, 48 h

For `CCCCCCCCCCCCCCCC(=O)OCC1OC(n2cc(F)c(=O)[nH]c2=O)C(NC(=O)N(CCCl)N=O)C(O)C1O` (configuration not stated), the GI50 in the assay on 786-0 was 0.166 µM (active); in the assay with CAKI-1, 4.78 µM (inactive); in the assay with CCRF-CEM it was 0.611 µM (active); with HL-60, 0.428 µM (active); in the assay with HOP-92, 3.65 µM (inactive); in the assay with KM-20L2, 5.15 µM (inactive). For the same compound, the GI50 is 1.86 µM (inactive) in the assay with KM12; 0.157 µM (active) in the assay with LOX IMVI; 5.3 µM (inactive) with LXFL 529; 4.06 µM (inactive) with M14; 1.21 µM (inactive) in the assay on MOLT-4; 0.731 µM (active) with NCI-H23. For the same compound, the GI50 is 8.04 µM (inactive) in the assay with OVCAR-3; 0.0246 µM (active) in the assay with SF-268; 0.122 µM (active) in the assay on SF-539; 1.35 µM (inactive) in the assay on SK-MEL-2; 0.0585 µM (active) in the assay with U-251; 5.94 µM (inactive) in the assay on UACC-257. Further, in the assay on UO-31, the GI50 is 12.3 µM (inactive).
As for `O=c1[nH]cc(OCC(F)(F)F)c(=O)[nH]1`, the GI50 in the assay with 786-0, with CAKI-1, in the assay with CCRF-CEM, in the assay with HL-60, in the assay on HOP-92 and in the assay on KM-20L2 was > 100 µM (inactive) throughout. Moreover, the GI50 with KM12, in the assay with LOX IMVI, with LXFL 529, in the assay with M14, in the assay with MOLT-4 and with NCI-H23 was > 100 µM (inactive) in each case. For the same compound, the GI50 in the assay on OVCAR-3, with SF-268, in the assay with SF-539, in the assay with SK-MEL-2, with U-251 and in the assay with UACC-257 was > 100 µM (inactive) throughout. For the same compound, the GI50 in the assay on UO-31 is > 100 µM (inactive).
Regarding `O=C(NC12CC3CC(CC(C3)C1)C2)C(=O)c1c[nH]c2ccc([N+](=O)[O-])cc12`, the GI50 in the assay on 786-0 is 16.9 µM (inactive); with CAKI-1 it was 65.9 µM (inactive); in the assay on CCRF-CEM it was > 44.9 µM (inactive); with HL-60, > 35.6 µM (inactive); in the assay with HOP-92, 30.3 µM (inactive); in the assay with KM-20L2, 36.5 µM (inactive). The GI50 in the assay on KM12 is 33.7 µM (inactive); in the assay with LOX IMVI, 15.3 µM (inactive); in the assay on LXFL 529, 20.2 µM (inactive); in the assay with M14, 34 µM (inactive); with MOLT-4 it was > 100 µM (inactive); in the assay on NCI-H23, 38.7 µM (inactive). In addition, the GI50 is 24.8 µM (inactive) in the assay on OVCAR-3; 9.48 µM (inactive) in the assay on SF-268; 46.1 µM (inactive) with SF-539; > 59.8 µM (inactive) in the assay with SK-MEL-2; 10.9 µM (inactive) in the assay on U-251; 85.5 µM (inactive) with UACC-257. Further, in the assay on UO-31, the GI50 was > 47.2 µM (inactive).
For `CC(=O)NNc1nc(C)c(C(=O)NNC(=O)C(=O)Nc2ccc(C)cc2[N+](=O)[O-])s1`, the GI50 in the assay with 786-0 was > 100 µM (inactive); in the assay with CAKI-1, > 100 µM (inactive); with CCRF-CEM, 46.1 µM (inactive); with HL-60 it was > 100 µM (inactive); in the assay with HOP-92, > 100 µM (inactive); in the assay with KM-20L2, > 100 µM (inactive). In addition, the GI50 in the assay on KM12 is > 100 µM (inactive); in the assay on LOX IMVI it was 56.4 µM (inactive); in the assay on LXFL 529, > 100 µM (inactive); in the assay with M14 it was > 100 µM (inactive); in the assay on MOLT-4, 98.4 µM (inactive); in the assay with NCI-H23, > 100 µM (inactive). Also, the GI50 with OVCAR-3 was 47.8 µM (inactive); with SF-268 it was > 100 µM (inactive); in the assay on SF-539 it was > 100 µM (inactive); in the assay on SK-MEL-2, > 100 µM (inactive); with U-251 it was > 100 µM (inactive); in the assay with UACC-257, > 100 µM (inactive). Moreover, the GI50 with UO-31 is > 100 µM (inactive).
As to `S=c1sc2c(Cl)nc(Cl)nc2n1-c1ccccc1`, the GI50 is > 100 µM (inactive) in the assay with 786-0; > 100 µM (inactive) in the assay with CAKI-1; 23.1 µM (inactive) in the assay with CCRF-CEM; 23.5 µM (inactive) in the assay on HL-60; > 100 µM (inactive) with HOP-92; 52.6 µM (inactive) with KM-20L2. For the same compound, the GI50 in the assay with KM12 was > 100 µM (inactive); with LOX IMVI, 34.8 µM (inactive); in the assay with LXFL 529 it was 17.9 µM (inactive); in the assay on M14 it was 21.1 µM (inactive); with MOLT-4 it was 32.4 µM (inactive); with NCI-H23, 15.7 µM (inactive). Also, the GI50 is 22.9 µM (inactive) with OVCAR-3; 11.1 µM (inactive) with SF-268; > 100 µM (inactive) with SF-539; 31.7 µM (inactive) in the assay with SK-MEL-2; 31 µM (inactive) with U-251; 53 µM (inactive) in the assay with UACC-257. For the same compound, in the assay on UO-31, the GI50 is > 100 µM (inactive).
Regarding `CC(C)C12C=CC(C)(CC1)n1c(=O)c3cc4ccccc4cc3c(=O)n12` (configuration not stated), the GI50 in the assay on 786-0 is 55.3 µM (inactive); with CAKI-1 it was 87.9 µM (inactive); in the assay on CCRF-CEM, 43.1 µM (inactive); in the assay on HL-60, 34 µM (inactive); in the assay on HOP-92, 38.5 µM (inactive); in the assay with KM-20L2, 31.7 µM (inactive). The GI50 is 50.8 µM (inactive) in the assay on KM12; 41.9 µM (inactive) with LOX IMVI; 34 µM (inactive) in the assay on LXFL 529; 76.4 µM (inactive) in the assay with M14; 30.8 µM (inactive) in the assay with MOLT-4; 52 µM (inactive) in the assay with NCI-H23. For the same compound, the GI50 is 46.2 µM (inactive) in the assay with OVCAR-3; 67.3 µM (inactive) with SF-268; 66.7 µM (inactive) with SF-539; 48.3 µM (inactive) with SK-MEL-2; 76 µM (inactive) in the assay with U-251; 63.1 µM (inactive) in the assay with UACC-257. Moreover, the GI50 in the assay with UO-31 is 24.9 µM (inactive).
With `CCCCC(C(=O)CCC(=O)Nc1ccc(Cl)c(Cl)c1)C(=O)C(C)C` (configuration not stated), the GI50 with 786-0, with CAKI-1, with CCRF-CEM, in the assay on HL-60, in the assay with HOP-92 and with KM-20L2 was > 100 µM (inactive) each time. The GI50 was 84.7 µM (inactive) in the assay with KM12; 63.2 µM (inactive) with LOX IMVI; 34.8 µM (inactive) in the assay with LXFL 529; 82.8 µM (inactive) in the assay on M14; > 100 µM (inactive) in the assay on MOLT-4; > 100 µM (inactive) in the assay with NCI-H23. For the same compound, the GI50 with OVCAR-3 was > 100 µM (inactive); in the assay with SF-268, > 100 µM (inactive); in the assay on SF-539 it was > 100 µM (inactive); in the assay with SK-MEL-2, 95.5 µM (inactive); in the assay on U-251, > 100 µM (inactive); in the assay on UACC-257, > 100 µM (inactive). Further, the GI50 in the assay with UO-31 is > 100 µM (inactive).
On to `COc1ccc(C2Oc3c(cc(O)c(OC)c3C)[C@@H]2C)cc1OC` (some centres not stated), for which the GI50 in the assay on 786-0 was > 100 µM (inactive); with CAKI-1, 37.2 µM (inactive); in the assay on CCRF-CEM it was 78.5 µM (inactive); in the assay with HL-60, 50.2 µM (inactive); in the assay with HOP-92, 43 µM (inactive); in the assay with KM-20L2, > 100 µM (inactive). Moreover, the GI50 was > 100 µM (inactive) in the assay on KM12; 82.6 µM (inactive) in the assay with LOX IMVI; 65.9 µM (inactive) in the assay on LXFL 529; > 100 µM (inactive) in the assay on M14; 76.2 µM (inactive) in the assay with MOLT-4; > 100 µM (inactive) in the assay on NCI-H23. For the same compound, the GI50 with OVCAR-3 is > 100 µM (inactive); in the assay on SF-268, > 100 µM (inactive); in the assay with SF-539, > 100 µM (inactive); with SK-MEL-2, > 100 µM (inactive); in the assay with U-251 it was > 100 µM (inactive); in the assay with UACC-257, 45 µM (inactive). The GI50 in the assay with UO-31 is 66.5 µM (inactive).
